Assays:
[1] = system: Mast/stem cell growth factor receptor Kit (Homo sapiens), P10721 [V559D,T670I]; details: Compound concentration 1000.0 nM
[2] = molecular target: Receptor-type tyrosine-protein kinase FLT3 (Homo sapiens) (UniProt P36888); details: Compound concentration 1000.0 nM
[3] = molecular target: Mitogen-activated protein kinase 10 (Homo sapiens) (UniProt P53779); details: Compound concentration 1000.0 nM
[4] = molecular target: Ephrin type-B receptor 6 (Homo sapiens) (UniProt O15197); details: Compound concentration 1000.0 nM
[5] = molecular target: Serine/threonine-protein kinase LATS1 (Homo sapiens) (UniProt O95835); details: Compound concentration 1000.0 nM
[6] = molecular target: Dual specificity protein kinase CLK2 (Homo sapiens) (UniProt P49760); details: Compound concentration 1000.0 nM
[7] = molecular target: Serine/threonine-protein kinase SIK3 (Homo sapiens) (UniProt Q9Y2K2); details: Compound concentration 1000.0 nM
[8] = system: Phosphatidylinositol 4,5-bisphosphate 3-kinase catalytic subunit alpha isoform (Homo sapiens), P42336 [E545A]; details: Compound concentration 1000.0 nM
[9] = molecular target: Calcium/calmodulin-dependent protein kinase type IV (Homo sapiens) (UniProt Q16566); details: Compound concentration 1000.0 nM
[10] = molecular target: Serine/threonine-protein kinase STK11 (Homo sapiens) (UniProt Q15831); details: Compound concentration 1000.0 nM
[11] = molecular target: Mitogen-activated protein kinase kinase kinase kinase 1 (Homo sapiens) (UniProt Q92918); details: Compound concentration 1000.0 nM
[12] = molecular target: Vascular endothelial growth factor receptor 3 (Homo sapiens) (UniProt P35916); details: Compound concentration 1000.0 nM
[13] = molecular target: Mitogen-activated protein kinase kinase kinase 5 (Homo sapiens) (UniProt Q99683); details: Compound concentration 1000.0 nM
Mitogen-activated protein kinase kinase kinase 5 (Homo sapiens), sequence (Q99683 whole entry): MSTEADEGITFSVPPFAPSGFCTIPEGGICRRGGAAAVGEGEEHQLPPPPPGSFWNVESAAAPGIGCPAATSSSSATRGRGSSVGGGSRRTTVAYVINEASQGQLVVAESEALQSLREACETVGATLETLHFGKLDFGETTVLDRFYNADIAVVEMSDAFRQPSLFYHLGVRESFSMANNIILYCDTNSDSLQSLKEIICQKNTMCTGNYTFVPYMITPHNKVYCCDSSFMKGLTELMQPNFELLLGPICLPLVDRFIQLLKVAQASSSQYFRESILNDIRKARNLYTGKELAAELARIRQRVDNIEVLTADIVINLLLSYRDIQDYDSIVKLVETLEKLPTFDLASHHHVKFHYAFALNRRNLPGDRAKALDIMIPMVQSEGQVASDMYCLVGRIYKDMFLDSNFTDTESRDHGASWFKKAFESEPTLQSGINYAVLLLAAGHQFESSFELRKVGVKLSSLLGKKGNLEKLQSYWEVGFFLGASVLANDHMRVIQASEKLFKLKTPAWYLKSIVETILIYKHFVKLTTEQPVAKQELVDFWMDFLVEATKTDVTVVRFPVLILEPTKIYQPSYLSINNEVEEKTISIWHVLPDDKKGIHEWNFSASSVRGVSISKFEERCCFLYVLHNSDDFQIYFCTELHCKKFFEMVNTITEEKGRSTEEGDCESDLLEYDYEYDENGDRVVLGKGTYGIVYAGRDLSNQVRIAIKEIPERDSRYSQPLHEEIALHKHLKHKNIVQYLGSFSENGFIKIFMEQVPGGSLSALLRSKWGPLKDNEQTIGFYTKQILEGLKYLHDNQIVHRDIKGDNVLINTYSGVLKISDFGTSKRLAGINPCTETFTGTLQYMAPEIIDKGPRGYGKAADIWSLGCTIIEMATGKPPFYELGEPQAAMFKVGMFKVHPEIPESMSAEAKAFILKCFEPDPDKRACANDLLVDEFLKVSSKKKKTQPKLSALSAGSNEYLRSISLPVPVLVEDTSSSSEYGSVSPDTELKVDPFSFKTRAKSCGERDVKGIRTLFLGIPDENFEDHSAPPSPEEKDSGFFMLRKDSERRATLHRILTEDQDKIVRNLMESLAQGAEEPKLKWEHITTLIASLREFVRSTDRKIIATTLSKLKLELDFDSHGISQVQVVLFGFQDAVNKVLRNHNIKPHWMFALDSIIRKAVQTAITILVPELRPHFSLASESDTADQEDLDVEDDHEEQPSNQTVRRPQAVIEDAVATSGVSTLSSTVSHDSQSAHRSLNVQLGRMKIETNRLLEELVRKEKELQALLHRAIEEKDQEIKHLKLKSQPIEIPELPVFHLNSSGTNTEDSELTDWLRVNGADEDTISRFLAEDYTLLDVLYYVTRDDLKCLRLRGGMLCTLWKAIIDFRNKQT

[14] = molecular target: NUAK family SNF1-like kinase 2 (Homo sapiens) (UniProt Q9H093); details: Compound concentration 1000.0 nM
[15] = molecular target: SRSF protein kinase 2 (Homo sapiens) (UniProt P78362); details: Compound concentration 1000.0 nM
[16] = molecular target: High affinity nerve growth factor receptor (Homo sapiens) (UniProt P04629); details: Compound concentration 1000.0 nM
High affinity nerve growth factor receptor (Homo sapiens), sequence (P04629 33-796 limits assumed): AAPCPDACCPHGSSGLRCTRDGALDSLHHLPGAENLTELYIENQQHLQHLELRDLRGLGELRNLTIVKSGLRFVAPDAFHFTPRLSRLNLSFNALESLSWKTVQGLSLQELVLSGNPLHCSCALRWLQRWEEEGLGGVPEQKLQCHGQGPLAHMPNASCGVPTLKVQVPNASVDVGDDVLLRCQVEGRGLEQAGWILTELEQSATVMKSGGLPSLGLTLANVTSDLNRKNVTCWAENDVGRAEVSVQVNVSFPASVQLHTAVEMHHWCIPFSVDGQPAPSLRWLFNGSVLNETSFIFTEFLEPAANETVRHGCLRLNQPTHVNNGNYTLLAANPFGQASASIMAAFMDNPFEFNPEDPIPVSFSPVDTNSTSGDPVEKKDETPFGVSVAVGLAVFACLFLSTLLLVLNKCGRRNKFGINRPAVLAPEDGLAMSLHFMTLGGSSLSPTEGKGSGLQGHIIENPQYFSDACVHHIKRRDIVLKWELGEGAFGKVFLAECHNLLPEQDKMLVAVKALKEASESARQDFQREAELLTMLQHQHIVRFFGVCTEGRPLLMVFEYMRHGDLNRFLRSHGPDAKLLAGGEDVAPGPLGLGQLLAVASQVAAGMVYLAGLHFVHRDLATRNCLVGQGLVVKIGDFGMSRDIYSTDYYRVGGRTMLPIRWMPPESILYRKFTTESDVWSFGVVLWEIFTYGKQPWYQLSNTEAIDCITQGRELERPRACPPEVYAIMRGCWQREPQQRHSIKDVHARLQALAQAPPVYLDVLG

[17] = molecular target: Calcium/calmodulin-dependent protein kinase type II subunit delta (Homo sapiens) (UniProt Q13557); details: Compound concentration 1000.0 nM
[18] = molecular target: Serine/threonine-protein kinase 32A (Homo sapiens) (UniProt Q8WU08); details: Compound concentration 1000.0 nM
[19] = molecular target: Cyclin-dependent kinase 17 (Homo sapiens) (UniProt Q00537); details: Compound concentration 1000.0 nM
[20] = molecular target: BMP-2-inducible protein kinase (Homo sapiens) (UniProt Q9NSY1); details: Compound concentration 1000.0 nM
[21] = molecular target: Tyrosine-protein kinase JAK3 (Homo sapiens) (UniProt P52333); details: Compound concentration 1000.0 nM
[22] = molecular target: Sodium-dependent dopamine transporter (Homo sapiens) (UniProt Q01959); details: Compound concentration 10.0 uM
[23] = molecular target: Sigma intracellular receptor 2 (Homo sapiens) (UniProt Q5BJF2); details: Compound concentration 10.0 uM
[24] = molecular target: Activin receptor type-1 (Homo sapiens) (UniProt Q04771); details: Compound concentration 1000.0 nM
[25] = molecular target: Serine/threonine-protein kinase Sgk3 (Homo sapiens) (UniProt Q96BR1); details: Compound concentration 1000.0 nM
[26] = molecular target: GABA-A receptor; anion channel (Rattus norvegicus) (UniProt O09028+P15431+P18506+P18508+P19969+P20236+P23574+P23576+P28471+P28473+P30191+P62813+P63079+P63138+Q91ZM7+Q9ES14); details: Compound concentration 10.0 uM
[27] = molecular target: Cyclin-G-associated kinase (Homo sapiens) (UniProt O14976); details: Compound concentration 1000.0 nM
[28] = molecular target: Protein kinase C eta type (Homo sapiens) (UniProt P24723); details: Compound concentration 1000.0 nM
[29] = molecular target: Interleukin-1 receptor-associated kinase 4 (Homo sapiens) (UniProt Q9NWZ3); details: Compound concentration 1000.0 nM
[30] = molecular target: Sodium-dependent noradrenaline transporter (Homo sapiens) (UniProt P23975); details: Compound concentration 10.0 uM
[31] = molecular target: Ephrin type-A receptor 5 (Homo sapiens) (UniProt P54756); details: Compound concentration 1000.0 nM
[32] = molecular target: Ephrin type-A receptor 3 (Homo sapiens) (UniProt P29320); details: Compound concentration 1000.0 nM
[33] = system: Tyrosine-protein kinase ABL1 (Homo sapiens), P00519 [T315I]; details: Compound concentration 1000.0 nM
[34] = molecular target: D(4) dopamine receptor (Homo sapiens) (UniProt P21917); details: Compound concentration 10.0 uM
[35] = molecular target: Cyclin-dependent kinase 3 (Homo sapiens) (UniProt Q00526); details: Compound concentration 1000.0 nM
[36] = system: Phosphatidylinositol 4,5-bisphosphate 3-kinase catalytic subunit alpha isoform (Homo sapiens), P42336 [Q546K]; details: Compound concentration 1000.0 nM
[37] = molecular target: SRSF protein kinase 1 (Homo sapiens) (UniProt Q96SB4); details: Compound concentration 1000.0 nM
[38] = molecular target: Aurora kinase A (Homo sapiens) (UniProt O14965); details: Compound concentration 1000.0 nM
[39] = molecular target: Serine/threonine-protein kinase TAO1 (Homo sapiens) (UniProt Q7L7X3); details: Compound concentration 1000.0 nM
Serine/threonine-protein kinase TAO1 (Homo sapiens), sequence (Q7L7X3 whole entry): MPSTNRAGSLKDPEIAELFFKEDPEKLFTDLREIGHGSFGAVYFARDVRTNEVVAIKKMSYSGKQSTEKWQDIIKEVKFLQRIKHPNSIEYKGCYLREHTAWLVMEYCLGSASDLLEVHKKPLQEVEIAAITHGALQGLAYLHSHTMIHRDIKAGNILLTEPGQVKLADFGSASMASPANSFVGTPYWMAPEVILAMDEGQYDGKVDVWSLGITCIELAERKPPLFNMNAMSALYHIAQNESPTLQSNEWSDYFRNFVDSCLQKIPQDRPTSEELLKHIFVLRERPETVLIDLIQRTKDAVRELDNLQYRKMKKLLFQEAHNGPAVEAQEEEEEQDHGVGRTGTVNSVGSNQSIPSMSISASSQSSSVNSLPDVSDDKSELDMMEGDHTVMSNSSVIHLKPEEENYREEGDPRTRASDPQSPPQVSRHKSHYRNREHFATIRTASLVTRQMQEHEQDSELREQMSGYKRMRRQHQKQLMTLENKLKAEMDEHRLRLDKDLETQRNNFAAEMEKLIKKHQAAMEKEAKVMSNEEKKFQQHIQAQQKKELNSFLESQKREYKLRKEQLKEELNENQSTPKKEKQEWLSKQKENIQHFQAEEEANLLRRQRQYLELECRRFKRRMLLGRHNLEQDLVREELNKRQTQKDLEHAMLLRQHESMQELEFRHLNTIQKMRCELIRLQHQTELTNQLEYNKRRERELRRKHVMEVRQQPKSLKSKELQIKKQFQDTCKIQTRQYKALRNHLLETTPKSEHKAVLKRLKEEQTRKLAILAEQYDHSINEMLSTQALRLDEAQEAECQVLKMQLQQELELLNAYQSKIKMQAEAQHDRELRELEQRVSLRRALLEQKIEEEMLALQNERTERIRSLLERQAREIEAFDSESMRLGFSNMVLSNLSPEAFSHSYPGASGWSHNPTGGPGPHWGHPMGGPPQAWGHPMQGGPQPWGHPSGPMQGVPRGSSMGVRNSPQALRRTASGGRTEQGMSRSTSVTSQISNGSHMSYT

[40] = molecular target: Cyclin-dependent kinase 2 homolog (Plasmodium falciparum (isolate 3D7)) (UniProt P61075); details: Compound concentration 1000.0 nM
[41] = molecular target: Phosphorylase b kinase regulatory subunit alpha, liver isoform (Homo sapiens) (UniProt P46019); details: Compound concentration 1000.0 nM
[42] = molecular target: Serine/threonine-protein kinase 24 (Homo sapiens) (UniProt Q9Y6E0); details: Compound concentration 1000.0 nM
[43] = molecular target: Histamine H4 receptor (Homo sapiens) (UniProt Q9H3N8); details: Compound concentration 10.0 uM
[44] = molecular target: SRSF protein kinase 3 (Homo sapiens) (UniProt Q9UPE1); details: Compound concentration 1000.0 nM

Receptor-type tyrosine-protein kinase FLT3 (Homo sapiens), sequence (P36888 whole entry): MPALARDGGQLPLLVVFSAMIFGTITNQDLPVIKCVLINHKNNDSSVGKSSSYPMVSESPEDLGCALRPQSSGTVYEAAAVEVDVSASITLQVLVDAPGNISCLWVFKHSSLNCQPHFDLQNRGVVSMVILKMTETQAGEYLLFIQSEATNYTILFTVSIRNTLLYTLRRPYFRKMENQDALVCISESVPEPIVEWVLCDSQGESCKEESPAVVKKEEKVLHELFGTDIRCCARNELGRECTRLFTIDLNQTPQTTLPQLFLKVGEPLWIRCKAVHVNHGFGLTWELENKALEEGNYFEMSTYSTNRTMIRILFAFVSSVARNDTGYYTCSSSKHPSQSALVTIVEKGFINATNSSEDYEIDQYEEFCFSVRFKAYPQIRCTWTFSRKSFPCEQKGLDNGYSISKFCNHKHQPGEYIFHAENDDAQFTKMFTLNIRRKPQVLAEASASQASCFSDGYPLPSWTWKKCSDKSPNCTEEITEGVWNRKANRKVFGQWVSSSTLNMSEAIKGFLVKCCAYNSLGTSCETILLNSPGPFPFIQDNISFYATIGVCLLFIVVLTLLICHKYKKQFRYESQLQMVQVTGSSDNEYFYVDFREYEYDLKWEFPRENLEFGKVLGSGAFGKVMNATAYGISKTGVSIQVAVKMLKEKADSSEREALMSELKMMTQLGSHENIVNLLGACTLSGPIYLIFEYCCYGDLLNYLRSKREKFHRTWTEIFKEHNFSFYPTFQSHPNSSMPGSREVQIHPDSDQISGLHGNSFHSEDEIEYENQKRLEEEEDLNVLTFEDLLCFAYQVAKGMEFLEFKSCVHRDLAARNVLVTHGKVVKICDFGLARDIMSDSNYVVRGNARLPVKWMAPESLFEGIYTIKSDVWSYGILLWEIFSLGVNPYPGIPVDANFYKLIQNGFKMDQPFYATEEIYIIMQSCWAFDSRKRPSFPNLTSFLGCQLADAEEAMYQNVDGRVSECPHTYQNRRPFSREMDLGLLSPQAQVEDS
Mast/stem cell growth factor receptor Kit (Homo sapiens), P10721 [V559D,T670I], sequence (P10721 whole entry V559D/T670I): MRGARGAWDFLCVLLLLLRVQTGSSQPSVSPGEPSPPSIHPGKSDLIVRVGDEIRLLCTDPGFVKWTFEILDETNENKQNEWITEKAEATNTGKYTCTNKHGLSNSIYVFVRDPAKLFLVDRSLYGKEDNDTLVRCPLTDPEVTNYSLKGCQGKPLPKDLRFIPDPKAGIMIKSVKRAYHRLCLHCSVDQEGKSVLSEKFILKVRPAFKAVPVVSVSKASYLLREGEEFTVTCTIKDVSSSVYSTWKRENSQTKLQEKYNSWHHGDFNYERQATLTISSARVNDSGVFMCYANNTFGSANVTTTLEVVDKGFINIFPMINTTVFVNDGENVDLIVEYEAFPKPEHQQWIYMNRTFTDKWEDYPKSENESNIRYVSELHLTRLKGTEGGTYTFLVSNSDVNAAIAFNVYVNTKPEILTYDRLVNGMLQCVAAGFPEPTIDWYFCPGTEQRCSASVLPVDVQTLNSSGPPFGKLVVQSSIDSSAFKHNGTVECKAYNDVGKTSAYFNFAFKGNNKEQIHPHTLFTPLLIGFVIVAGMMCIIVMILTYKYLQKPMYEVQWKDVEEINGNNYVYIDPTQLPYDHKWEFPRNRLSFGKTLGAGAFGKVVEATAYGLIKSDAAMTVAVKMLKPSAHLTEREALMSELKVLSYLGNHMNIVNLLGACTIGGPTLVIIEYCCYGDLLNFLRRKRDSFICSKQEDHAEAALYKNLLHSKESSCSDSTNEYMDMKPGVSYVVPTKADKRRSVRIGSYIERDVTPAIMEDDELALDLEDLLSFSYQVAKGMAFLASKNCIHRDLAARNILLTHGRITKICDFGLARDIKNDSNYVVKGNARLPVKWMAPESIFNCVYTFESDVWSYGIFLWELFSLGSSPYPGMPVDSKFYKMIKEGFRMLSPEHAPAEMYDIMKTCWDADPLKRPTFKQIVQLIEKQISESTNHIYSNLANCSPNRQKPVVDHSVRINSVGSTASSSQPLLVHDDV

N#Cc1ccc(Nc2ccc3[nH]c(=O)[nH]c3c2)c(Cl)c1
inactive: residual activity [1] 100% | residual activity [2] 100% | residual activity [3] 100% | residual activity [4] 100% | residual activity [5] 76% | residual activity [6] 100% | residual activity [7] 75% | residual activity [8] 100% | residual activity [9] 100% | residual activity [10] 100% | residual activity [11] 100% | residual activity [12] 100% | residual activity [13] 90% | residual activity [14] 100% | residual activity [15] 100% | residual activity [16] 93% | residual activity [17] 100% | residual activity [18] 81% | residual activity [19] 100% | residual activity [20] 91% | residual activity [21] 100% | inhibition [22] 14% | inhibition [23] -4.12% | residual activity [24] 89% | residual activity [25] 100% | inhibition [26] 10.2% | residual activity [27] 100% | residual activity [28] 97% | residual activity [29] 100% | inhibition [30] -2.68% | residual activity [31] 100% | residual activity [32] 86% | residual activity [33] 90% | inhibition [34] -2.02% | residual activity [35] 100% | residual activity [36] 93% | residual activity [37] 95% | residual activity [38] 87% | residual activity [39] 97% | residual activity [40] 100% | residual activity [41] 100% | residual activity [42] 100% | inhibition [43] 4.43% | residual activity [44] 100%

O=C1CCc2cc(Nc3cc(OC4CCOCC4)c([N+](=O)[O-])cc3Cl)ccc2N1
inactive: residual activity [1] 94% | residual activity [2] 90% | residual activity [3] 98% | residual activity [4] 100% | residual activity [5] 81% | residual activity [6] 99% | residual activity [7] 75% | residual activity [8] 100% | residual activity [9] 100% | residual activity [10] 100% | residual activity [11] 100% | residual activity [12] 97% | residual activity [13] 84% | residual activity [14] 89% | residual activity [15] 100% | residual activity [16] 94% | residual activity [17] 100% | residual activity [18] 90% | residual activity [19] 91% | residual activity [20] 100% | residual activity [21] 96% | inhibition [22] 13.6% | inhibition [23] 27.1% | residual activity [24] 100% | residual activity [25] 100% | inhibition [26] 29.2% | residual activity [27] 100% | residual activity [28] 86% | residual activity [29] 100% | inhibition [30] 0.76% | residual activity [31] 93% | residual activity [32] 83% | residual activity [33] 99% | inhibition [34] -2.6% | residual activity [35] 100% | residual activity [36] 70% | residual activity [37] 73% | residual activity [38] 87% | residual activity [39] 81% | residual activity [40] 100% | residual activity [41] 100% | residual activity [42] 97% | inhibition [43] 11.6% | residual activity [44] 100%

Reference: ChEMBL document CHEMBL4507304, “Data for DCP probe TP-021” (2021)
